The test system of one series is sepsis. The conditions noted are these: cited from earlier work.
Series [1] concerns dextran-induced paw edema. The series is described as follows: dextran-induced rat paw edema. Type of series: in vivo. The source says:
Therefore, it was expected that such a mechanism might also come into play at the central nervous system level.

The test system of series [2] is arachidonic acid-induced brain inflammation. The series is described as follows: brain inflammation induced by arachidonic acid in the subarachnoid space (CSF volume and WBC count in CSF). Format: in vivo, rat. On the procedure: Male rats, approximately 350–400 g, were anesthetized with sodium pentobarbital at a dose of 50 mg/kg intraperitoneally (i.p.). Animals were then placed in a stereotaxic unit. Fur from the top of the head to neck was shaved. The study area was disinfected with 70% ethanol followed by a 10% providone-iodine solution. Skin and muscle over the cervical cord were dissected until cervical vertebrae were exposed. A hole was made using a 23G3/4 needle passing through the dura via the cisterna magna. One end of a 2–3 mm PE10 cannula (0.011 “I.D., 0.007” thick, 0.024” O.D., 6.5 cm long) was inserted into the subarachnoid space at the cervical cord so as to avoid damage to neuronal tissue (FIG. 3). The cannula was fixed with cyanoacrylic glue to the peripheral tissue. […] The cannula filled with CSF immediately after the cannulation. Air was infused to inject AA to the subarachnoid space. The muscles and skin were closed with surgical staples. The rat was then removed from the stereotaxic unit and placed on a heat pad and continuously monitored. […] If the effects of the anesthesia appeared to be wearing off, an additional 0.05–0.1 ml pentobarbital (50 mg/ml, i.p.) dose was administered. If at any time during the experiment, the animal appeared to be in pain or distress, the study was immediately stopped and the animal was euthanized. In the present study, the volume (μl) of cerebrospinal fluid (CSF) and white blood cell (WBC) counts in CSF was measured every thirty minutes for 11 hours from the same rat. One side of the cannula (PE10) was inserted into the subarachnoid space under pentobarbital anesthesia, avoiding neuronal damage (FIG. 3). If the brain tissue is damaged, the volume of CSF and WBC increases immediately without the administration of arachidonic acid. Since there are no WBC in the CSF in the normal rat, only rats that had no WBC in the CSF immediately after the cannulation were used. Another side of the cannula remained open and was used for the administration of nociceptive stimuli (arachidonic acid, LPS, dextran, etc.) and subsequently for collecting the CSF every thirty minutes during the experiment. The CSF volume was measured using a micropipette and WBC in the CSF were counted by means of a hemacytometer.

Series [3] concerns interleukin-6 induced leukocyte in CSF. The series is described as follows: interleukin-6 induced white blood cell infiltration into CSF (sepsis model). Type of series: in vivo, dog. To be noted: 300, 500, 1000 mg/kg p.o. 30 minutes before interleukin-6; for three days. The source says: TNF-α, interleukin-1 and interleukin-6 produced by activated macrophages at the site of the nociceptive stimuli play a particularly important role in mediating acute-phase inflammation as well as sepsis. In fact, proinflammatory cytokines administered to the outside of the blood brain barrier through the chronically in-dwelling intracerebroventricular catheter attached to an Ommaya reservoir increase white blood cell count (characterized by neutrophilic response and lymphocyte respectively) in the cerebrospinal fluid in dogs. The inflammation induced by interleukin-6, was longer lasting (starting from 2 hours, peak time are 10–24 hours lasting 24–72 hours) than that induced by interleukin-1β and TNF-α. In the present studies presented in the Examples hereinbelow, the inflammation caused by interleukin-6 was used as a sepsis model, measuring the amount of infiltrating white blood cells in the cerebrospinal fluid.

Series [4] relates to ischemia (occlusion of both carotid arteries). The series can be described thus: rat ischemia model, reversible 30 minute occlusion of both carotid arteries followed by reperfusion. Type of series: in vivo. The conditions noted are these: 450 mg/kg i.p. 30 minutes before the occlusion.
For series [5] the following is noted: rats, cited from earlier work.
For series [6] the following is noted: mice, cited from earlier work.
The conditions of series [7]: cited from earlier work.
For series [8] the following is noted: cited from earlier work. This is another data set of the same source.
The test system of a further series is focal cerebral ischemia. To be noted: cited from earlier work.

This is an account of results in patent US7148248B2, “Method of treating or inhibiting the development of brain inflammation and sepsis” (priority 2002, dated 2006).

Read-outs that look alike come from different tables or passages of the source.

As a reminder, the LD50 is the dose at which mortality reaches 50%.

On to `C[C@]12CCC(=O)C=C1CC[C@@H]1[C@@H]2[C@@H](O)C[C@@]2(C)[C@H]1CC[C@]2(O)C(=O)CO` [Hydrocortisone], for which the Effect entry in the series with sepsis (large dose (100 mg i.v. then 0.18/kg/hr)) is listed as “none or worse”; in the series on sepsis (small dose (100 mg i.v./every 8 hours)) it was “effective”.
As for `O=C(Nc1cccc2c(=O)cc(-c3nnn[nH]3)oc12)c1ccc(OCCCCc2ccccc2)cc1` [pranlukast], the “inhibition of dextran-induced paw edema” value in series [1] (450 mg/kg, administered intraperitoneally) is on record as “completely inhibited”. Also, the “inhibition of dextran-caused paw edema” value in series [1] (450 mg/kg, administered orally (FIG. 2)) was “completely inhibited”. In series [1] (rat, in vivo), the “dose dependence of inhibition of dextran-induced paw edema” value is listed as “dose-dependent fashion”. In addition, the “effect on brain inflammation caused by a large dose of arachidonic acid” value in series [2] (arachidonic acid 6.25 μg/2.0 μl, pranlukast 450 mg/kg p.o.) is given as “not inhibited by pranlukast (450 mg/kg; p.o.) but was attenuated”. Further, the “time until white blood cell count returned to normal (=zero) after arachidonic acid” value in [2] (arachidonic acid 6.25 μg/2.0 μl, pranlukast 450 mg/kg p.o., 5 days without pranlukast) worked out at 36 h. In addition, in series [2] (pranlukast 450 mg/kg i.p. thirty minutes before arachidonic acid 3.25 μg/2 μl, n=4), the “inhibition of the increase of CSF volume” value is “completely inhibited”. In addition, the “inhibition of inflammation caused by arachidonic acid” value in series [2] (pranlukast 450 mg/kg i.p., arachidonic acid 3.25 μg/2 μl) is “completely inhibits”. For the same molecule, the “inhibition of interleukin-6 induced leukocyte in CSF” value in [3] is reported as “completely inhibited”. Also, the survival entry in series [4] is recorded as “One of 4–5 rats survived for one week”. Also, the 50% lethal dose (LD50) in [5] (p.o.), in series [5] (s.c.), in [6] (p.o.) and in [6] (s.c.) was above 2000 mg/kg each time. Moreover, the “behavior, changes in body weight and food intake compared with control group” value in series [7] (single 30-1000 mg/kg p.o. and repeated 30-1000 mg/kg/day p.o. for three and six months) is given as “normal”. Also, the “urine examination and histopathological examinations” value in [7] (single and repeated administration) is “normal”. The “time the maximum blood concentration was maintained” value in series [8] (20 mg/kg p.o.) is “at least 5 hours”. Besides, the “time to maximum blood concentration” value in series [8] (20 mg/kg p.o.) is “within one hour”. In addition, the “pranlukast in blood 24 hours after administration” value in series [8] (low doses (20 mg/kg p.o.)) is reported as “no pranlukast was observed”. Moreover, in the series on focal cerebral ischemia (0.003-1.0 mg/kg i.p. 30 minutes before MCA occlusion and 2 hours after reperfusion, evaluated 24 hours after reperfusion), the “effect on death of brain cells” value was “inhibited the death of brain cells”. Besides, the most effective dose with focal cerebral ischemia (Zhang et al (2002)) was 0.1 mg/kg.
